In patent US6730687B1, “Substituted benzylthiazolidine-2, 4-dione derivatives” (Kyorin Pharmaceutical Co., Ltd., priority 1999, dated 2004):
Read-outs that look alike come from different tables or passages of the source.

Legend:
[1] = biological target: T1, ligand-binding domain of human type PPARα (Homo sapiens, UniProt Q07869); assay: Test of transactivation on peroxisome proliferator-activated receptor (CHO cells, reporter plasmid), PPARα
T1 sequence (Q07869 239-466 limits assumed): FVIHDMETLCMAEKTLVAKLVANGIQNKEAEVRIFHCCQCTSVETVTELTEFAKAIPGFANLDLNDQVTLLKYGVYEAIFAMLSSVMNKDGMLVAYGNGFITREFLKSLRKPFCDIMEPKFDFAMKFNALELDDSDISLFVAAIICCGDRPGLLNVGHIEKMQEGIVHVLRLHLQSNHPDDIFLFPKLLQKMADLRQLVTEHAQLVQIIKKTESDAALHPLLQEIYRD
Description: (§1) After 24 hours, CAT activity and β-galactosidase activity were measured.

[2] = biological target: T2, ligand-binding domain of human type PPARγ (Homo sapiens, UniProt P37231); assay: Test of transactivation on peroxisome proliferator-activated receptor (CHO cells, reporter plasmid), PPARγ
T2 sequence (P37231 238-503 limits assumed): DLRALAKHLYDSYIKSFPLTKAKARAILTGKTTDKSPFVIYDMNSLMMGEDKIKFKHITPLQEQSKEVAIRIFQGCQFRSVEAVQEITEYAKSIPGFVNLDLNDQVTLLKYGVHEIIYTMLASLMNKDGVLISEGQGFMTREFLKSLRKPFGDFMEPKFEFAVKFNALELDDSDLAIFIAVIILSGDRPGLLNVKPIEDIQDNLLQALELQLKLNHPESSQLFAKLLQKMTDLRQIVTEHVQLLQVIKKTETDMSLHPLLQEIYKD
Description: as §1

[3] = read-out: Transactivation action PPARα EC50, CHO cells cotransfected with receptor and reporter plasmids, 24 hours, CAT activity, β-galactosidase internal standard

Row | melting point [°C] | EC50 [2] [µM] | EC50 [1] [µM] | Compound | EC50 [1, 3] [µM] | EC50 ([2]; read-out: Transactivation action PPARγ EC50, CHO cells cotransfected with receptor and reporter plasmids, 24 hours, CAT activity, β-galactosidase internal standard) [µM]
1 | 147 to 149 | 1.1 | 0.86 | COc1ccc(CC2SC(=O)NC2=O)cc1NC(=O)Cc1ccc(C(F)(F)F)cc1 (stereo not shown) [Example 15, N-[2-Methoxy-5-[(2,4-dioxothiazolidin-5-yl)methyl]phenyl]-2-[4-(trifluoromethyl)phenyl]acetamide] | – | –
2 | 103 to 104.5 | 0.4 | 0.8 | COc1ccc(CC2SC(=O)NC2=O)cc1C(=O)CCc1ccc(C(F)(F)F)cc1 (stereo not shown) [Example 22, 5-[[3-[3-[4-(Trifluoromethyl)phenyl]propanoyl]-4-methoxynhenyl]methyl]thiazolidine-2,4-dione] | – | –
3 | 82 to 84 | – | – | COc1ccc(CC2SC(=O)NC2=O)cc1CC(=O)Nc1ccc(Oc2ccccc2)cc1 (stereo not shown) [Example 23, N-[4-(Phenoxy)phenyl]-2-[5-[(2,4-dioxothiazolidin-5-yl)methyl]-2-methoxyphenyl]acetamide] | – | –

Second part, the compound before the results:

Row | Compound | melting point [°C] | EC50 [2] [µM] | EC50 [1] [µM] | EC50 [1, 3] [µM] | EC50 ([2]; read-out: Transactivation action PPARγ EC50, CHO cells cotransfected with receptor and reporter plasmids, 24 hours, CAT activity, β-galactosidase internal standard) [µM]
4 | CCCCC/C=C\C/C=C\C=C\[C@@H](O)C/C=C\CCCC(=O)O [(8S)-HETE, reference compound] | – | – | – | 1.3 | –
5 | COc1ccc(CC2SC(=O)NC2=O)cc1CC(=O)Nc1ccc(C(F)(F)F)cc1 (stereo not shown) [Example 6, N-[4-(Trifloromethyl)phenyl]-2-[5-[(2,4-dioxothiazolidin-5-yl)methyl]2-methoxyphenyl]acetamide] | – | – | – | 0.6 | 3.3
6 | COc1ccc(CC2SC(=O)NC2=O)cc1NC(=O)Nc1ccc(C(F)(F)F)cc1 (stereo not shown) [Example 11, 5-[[4-Methoxy-3-[3-[4-(trifluoromethyl)phenyl]ureido]phenyl]methyl]thiazolidinex-2,4-dione] | 202 to 204 | 0.43 | 0.55 | – | –
